From the supplement of paper PMC12592484

What was measured:
Assay in all cases: drug sensitivity score (DSS2, normalised partial AUC of dose-response, 72 h CellTiter-Glo viability) (DSS (dimensionless)); higher = more sensitive (stronger growth inhibition / cytotoxicity); extreme values may be limits of the assay
CAF#3 = system: CAF#3 (primary prostate cancer-associated fibroblasts of myCAF-like type)
Procedure, shortened: (§1)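 In BREEZE, the drug sensitivity score was derived as a partial area under a fitted logistic dose–response curve over the log of that curve's upper asymptote; a higher score marks a more sensitive response. The input came from low-passage primary prostate cancer-associated fibroblasts, PF179T, WPMY-1, LNCaP and 22Rv1 cells, each seeded into 384-well plates with compounds pre-dispensed at five doses spanning a 10,000-fold range. CellTiter-Glo 2.0 luminescence after 72 h gave viability, which was normalized to vehicle and positive-control wells.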

CAF#7 = system: CAF#7 (primary prostate cancer-associated fibroblasts of myCAF-like type)
Procedure, shortened: as §1

CAF#6 = system: CAF#6 (primary prostate cancer-associated fibroblasts of iCAF-like type)
Procedure, shortened: as §1

WPMY-1 = system: WPMY-1
Procedure, shortened: as §1

CAF#4 = system: CAF#4 (primary prostate cancer-associated fibroblasts of iCAF-like type)
Procedure, shortened: as §1

CAF#1 = system: CAF#1 (primary prostate cancer-associated fibroblasts of myCAF-like type)
Procedure, shortened: as §1

CAF#5 = system: CAF#5 (primary prostate cancer-associated fibroblasts of myCAF-like type)
Procedure, shortened: as §1

LNCAP = system: LNCAP
Procedure, shortened: as §1

CAF#2 = system: CAF#2 (primary prostate cancer-associated fibroblasts of iCAF-like type)
Procedure, shortened: as §1

PF179T = system: PF179T
Procedure, shortened: as §1

22Rv1 = system: 22Rv1
Procedure, shortened: as §1

SMILES | drug sensitivity score (CAF#3) | drug sensitivity score (CAF#7) | drug sensitivity score (CAF#6) | drug sensitivity score (WPMY-1) | drug sensitivity score (CAF#4) | drug sensitivity score (CAF#1) | drug sensitivity score (CAF#5) | drug sensitivity score (LNCAP) | drug sensitivity score (CAF#2) | drug sensitivity score (PF179T) | drug sensitivity score (22Rv1)
COc1ccc(C[C@H](NC(=O)[C@H](C)NC(=O)CN2CCOCC2)C(=O)N[C@@H](Cc2ccccc2)C(=O)C2(C)CO2)cc1 (stereo in doubt) [ONX-0914] (tested concentration range 1-10000 nM) | 15.5 | 15.6 | 15 | 23.4 | 10.3 | 14 | 18.3 | 19.3 | 16 | 14.8 | 18
COC(=O)c1ccc([C@H]2c3[nH]c4ccccc4c3C[C@H](C(=O)OC)N2C(=O)CCl)cc1 [RSL3] (tested concentration range 1-10000 nM) | 2.5 | 9.5 | 0.6 | 0 | 0 | 0.7 | 0.3 | 0.9 | 3 | 0 | 0
O=c1sn(-c2cccc3ccccc23)c(=O)n1Cc1ccccc1 [Tideglusib] (tested concentration range 0.3-3000 nM) | 0 | 1.6 | 2.3 | 0 | 0 | 0 | 0 | 0 | 0.8 | 0 | 0
CC[C@@H](C(=O)[C@@H](C)[C@@H](O)[C@H](C)[C@@H]1O[C@@H]([C@@H](CC)C(=O)O)CC[C@@H]1C)[C@H]1O[C@]2(C=C[C@@H](O)[C@]3(CC[C@@](C)([C@H]4CC[C@](O)(CC)[C@H](C)O4)O3)O2)[C@H](C)C[C@@H]1C [Salinomycin] (tested concentration range 5-50000 nM) | 9.4 | 18.5 | 21.2 | 28.8 | 25.2 | 26.8 | 23.6 | 29.1 | 26.5 | 19.1 | 26.4
O=C(O)CCCCC(CCSCc1ccccc1)SCc1ccccc1 (centres undefined) [Devimistat] (tested concentration range 1-10000 nM) | 0 | 0 | 0 | 0 | 0 | 0 | 0 | 0 | 0 | 0 | 0
CC#CC(=O)N1CCC[C@H]1c1nc(-c2ccc(C(=O)Nc3ccccn3)cc2)c2c(N)nccn12 [Acalabrutinib] (tested concentration range 0.1-1000 nM) | 0 | 0 | 0 | 0 | 0 | 0.1 | 0.8 | 0 | 0.4 | 0 | 0
Nc1ccccc1NC(=O)c1ccc(CNC(=O)OCc2cccnc2)cc1 [Entinostat] (tested concentration range 1-10000 nM) | 2.4 | 3.5 | 2.2 | 8.5 | 4.8 | 5 | 7.4 | 11.6 | 8.5 | 8.1 | 10.2
Cc1c(-c2c(-c3ccc(F)o3)sc3ncnc(O[C@H](Cc4ccccc4OCc4ccnn4CC(F)(F)F)C(=O)O)c23)ccc(OCCN2CCN(C)CC2)c1Cl (tested concentration range 0.1-1000 nM) | 0 | 0 | 0 | 0 | 0 | 0 | 0 | 0 | 0 | 0 | 0.7
O=c1[nH]c(=O)n([C@H]2C[C@H](O)[C@@H](CO)O2)cc1C(F)(F)F [Trifluridine] (tested concentration range 1-10000 nM) | 0 | 0 | 0 | 4.7 | 0 | 0 | 0 | 4 | 1 | 0.1 | 5
